From patent publication US4216221A, “1,3-Disubstituted (2-thio)ureas” (U C B, Societe Anonyme, priority 1977, dated 1980)
Where two headings read alike, the source gives them in different places.

Key:
[1] = active avoidance test (memory retention; paw withdrawal reaction threshold); format: in vivo, rat; details: for minimal effective dose: sc
Excerpt: The pressure at which the withdrawal reaction takes place is called the reaction threshold. This threshold is expressed by the figure read on a scale graduated in cm of the apparatus used (Analgesy-meter Ugo Basile, Milan) and thus corresponds to the minimum pressure which brings about withdrawal when applied to the animal's paw.

[2] = spinal fixation time (spinal section 35 minutes after onset of asymmetry); format: in vivo, rat
Excerpt: (b) The action on mnemic processes is also shown by the reduction of the spinal fixation time, a test which has been described in literature (T. J. CHAMBERLAIN et al., J.Neuro-Physiol.26, (1963,no. 4), 662-673; C. GIURGEA and F. MOURAVIEFF-LESUISSE, Arch.Int.Pharmacodyn.Therap.191, (1971,no. 2), 279) as an elementary memory model and which provides pharmacological reactivity in good correlation with clinical physiopathology. In the rat, after unilateral lesion of the cerebellum, there is a postural asymmetry of the hind paws. This asymmetry may persist, even after spinal section, if the animal has passed a sufficiently long time in this position.
This time, which is called the spinal fixation time, is 45 minutes under the experimental conditions applied here.
On the other hand, if the spinal section is performed before the expiry of this period of time, for example 35 minutes after the onset of the asymmetry, the latter disappears.
No animal treated with placebos retains asymmetry under these conditions.
Inversely, any product which allows the rats to retain the asymmetry (thus effecting spinal fixation) when the spinal section is performed after 35 minutes, is considered to be active.
The compounds were all tested at a dosage of […]. The minimum active doses were not sought, except for compound No. 1 and for piracetam. […] By "number of animals" is to be understood the number of animals which responded positively to the test, in relation to the number of animals tested at the indicated dose: […]

[3] = Toxicity by intraperitoneal administration (Irwin's test); format: in vivo; details: for Dose mg/kg (dose which brings about the death of one animal out of eight in Irwin's test): mouse
Excerpt: The compounds tested have a remarkably low toxicity.
*Dose which brings about the death of one animal out of eight in Irwin's
test (S. IRWIN, Gordon Research Conference on Medicinal Chemistry, Colby
Junior College, New London, 1959).

[4] = Protection against aggressions of the hypoxic type (mortality induced by oxydipentonium chloride); format: in vivo, mice; details: Mus musculus, ip, 1 h, read-out: Proportion of survivors, Animals treated
Experimental: Protection against aggressions of the hypoxic type was shown by a reduction of mortality induced by a curarizer, the action time of which is short, namely oxydipentonium chloride (Brevatonal). At the doses used, this curarizer brings about respiratory depression which, in turn, gives rise to a hypoxi-hypercapnic syndrome.
A compound capable of protecting the brain during this short period of hypoxia ensures survival. The compounds are administered to groups of 10 mice one hour before the injection of the curarizer. At the same time, a control group of 10 mice received physiological salt solution before the curarizer. This test has also been developed in our laboratories (see S. LEVIS et al., Arch.Int.Pharmacodyn.Therap.93, (1953,no. 1), 46-54).

[5] = Toxicity when administered intravenously or orally (LD50); details: in vivo, rat
Excerpt: Furthermore, in the rat, the compounds tested also have a low toxicity when administered intravenously or orally, as shown by the results given in the following Table V: […]

[6] = rat, subcutaneous, tested 24 hours later, read-out: Active dose mM/kg (minimum dose lowering the stimulus below 11 graduations; mM = millimole)
[7] = rat, subcutaneous, tested 24 hours later, read-out: Active dose mg/kg (minimum dose lowering the stimulus below 11 graduations)
[8] = ip, 35 min, rat, intraperitoneal, 0.32 mM/kg, read-out: Number of animals which responded positively to the test, in relation to the number of animals tested (converted)
[9] = mice, intraperitoneal, 0.1 mM/kg, one hour before the curarizer, control animals 3/20 (1), 1/10 (2, 18, 26), 0/10 (14, 32), 2/10 (28)
[10] = mice, intraperitoneal, 0.32 mM/kg, one hour before the curarizer, control animals 1/10 (18), 2/10 (28), 0/10 (32, piracetam)
[11] = Rattus norvegicus, ip, read-out: Active dose mM/kg (minimum active dose)
[12] = Rattus norvegicus, ip, read-out: Active dose mg/kg (minimum active dose)
[13] = iv, i.v., read-out: LD50 mg/kg (rat)
[14] = iv, i.v., read-out: LD50 - mM/kg
[15] = po, per os, read-out: LD50 mg/kg (rat)
[16] = po, per os, read-out: LD50 - mM/kg

Compound: CCC(CNC(=O)NCC(CC)N1CCCC1=O)N1CCCC1=O (centres unmarked) [compound 22]
- minimal effective dose [1, 6]: 0.02 µmol/kg
- minimal effective dose [1, 7]: 0.0067 mg/kg
- responders at 320 µM, 320 µmol/kg [2, 8]: 71.4%
- Dose mM/kg - mouse (dose which brings about the death of one animal out of eight in Irwin's test) [3]: > 3 mM/kg
- Dose mg/kg (dose which brings about the death of one animal out of eight in Irwin's test) [3]: > 1014 mg/kg

Compound: O=C1CCC(c2ccc(Cl)cc2)CN1CNC(=S)NCN1CC(c2ccc(Cl)cc2)CCC1=O (centres unmarked) [compound 24, 1,3-bis[(5-p-chlorophenyl-2-oxo-piperidino)methyl]-2-thiourea]
- responders at 320 µM, 320 µmol/kg [2, 8]: 42.9%
- Dose mM/kg - mouse (dose which brings about the death of one animal out of eight in Irwin's test) [3]: > 3 mM/kg
- Dose mg/kg (dose which brings about the death of one animal out of eight in Irwin's test) [3]: > 1039 mg/kg

Compound: O=C1CCCCCN1CNC(=S)NCN1CCCC1=O [compound 28, 1-[(hexahydro-2-oxo-1H-azepin-1-yl)methyl]-3-[(2-oxo-pyrrolidino)methyl]-2-thiourea]
- responders at 100 µM, 100 µmol/kg [4, 9]: 20%
- responders at 320 µM, 320 µmol/kg [4, 10]: 70%
- Dose mM/kg - mouse (dose which brings about the death of one animal out of eight in Irwin's test) [3]: 3 mM/kg
- Dose mg/kg (dose which brings about the death of one animal out of eight in Irwin's test) [3]: 894 mg/kg

Compound: CC1CCN(CNC(=O)NCN2CCC(C)C2=O)C1=O (centres unmarked) [compound 34, 1,3-bis[(3-methyl-2-oxo-1-pyrrolidino)methyl]-urea]
- responders at 320 µM, 320 µmol/kg [2, 8]: 50%
- Dose mM/kg - mouse (dose which brings about the death of one animal out of eight in Irwin's test) [3]: > 6 mM/kg
- Dose mg/kg (dose which brings about the death of one animal out of eight in Irwin's test) [3]: > 1692 mg/kg

Compound: O=C(NCCN1CCCC1=O)NCCN1CCCC1=O [compound 20, 1,3-bis[2-(2-oxo-pyrrolidino)ethyl]-urea]
- minimal effective dose [1, 6]: 0.05 µmol/kg
- minimal effective dose [1, 7]: 0.014 mg/kg
- responders at 320 µM, 320 µmol/kg [2, 8]: 42.9%
- Dose mM/kg - mouse (dose which brings about the death of one animal out of eight in Irwin's test) [3]: > 3 mM/kg
- Dose mg/kg (dose which brings about the death of one animal out of eight in Irwin's test) [3]: > 846 mg/kg

Compound: CC1CC(=O)N(CNC(=O)NCN2C(=O)CC(C)C2C)C1C (centres unmarked) [compound 14, 1,3-bis[(4,5-dimethyl-2-oxo-pyrrolidino)methyl]-urea]
- minimal effective dose [1, 6]: 10 µmol/kg
- minimal effective dose [1, 7]: 3.1 mg/kg
- responders at 100 µM, 100 µmol/kg [4, 9]: 50%
- Dose mM/kg - mouse (dose which brings about the death of one animal out of eight in Irwin's test) [3]: > 3 mM/kg
- Dose mg/kg (dose which brings about the death of one animal out of eight in Irwin's test) [3]: 930 mg/kg

Compound: O=C(NCN1CCCCCC1=O)NCN1CCCCCC1=O [Compound No. 4, 1,3-bis[(hexahydro-2-oxo-1H-azepin-1-yl)methyl]-urea]
- minimal effective dose [1, 6]: 0.005 µmol/kg
- minimal effective dose [1, 7]: 0.0015 mg/kg
- responders at 320 µM, 320 µmol/kg [2, 8]: 66.7%
- Dose mM/kg - mouse (dose which brings about the death of one animal out of eight in Irwin's test) [3]: 3 mM/kg
- Dose mg/kg (dose which brings about the death of one animal out of eight in Irwin's test) [3]: 930 mg/kg

Compound: CC1CCC(=O)N1CNC(=O)NCN1C(=O)CCC1C (centres unmarked) [Compound No. 8, 1,3-bis[(5-methyl-2-oxo-pyrrolidino)methyl]-urea]
- minimal effective dose [1, 6]: 5 µmol/kg
- minimal effective dose [1, 7]: 1.41 mg/kg
- responders at 320 µM, 320 µmol/kg [2, 8]: 57.1%
- Dose mM/kg - mouse (dose which brings about the death of one animal out of eight in Irwin's test) [3]: > 3 mM/kg
- Dose mg/kg (dose which brings about the death of one animal out of eight in Irwin's test) [3]: > 746 mg/kg

Compound: CC1C(=O)N(CNC(=O)NCN2CC(c3ccc(Cl)cc3)C(C)C2=O)CC1c1ccc(Cl)cc1 (centres unmarked) [Compound No. 7, 1,3-bis[(4-p-chlorophenyl-3-methyl-2-oxo-pyrrolidino)methyl]-urea]
- minimal effective dose [1, 6]: 5 µmol/kg
- minimal effective dose [1, 7]: 1.01 mg/kg
- responders at 320 µM, 320 µmol/kg [2, 8]: 66.7%
- Dose mM/kg - mouse (dose which brings about the death of one animal out of eight in Irwin's test) [3]: > 3 mM/kg
- Dose mg/kg (dose which brings about the death of one animal out of eight in Irwin's test) [3]: > 1509 mg/kg

Compound: CC1CC(C)(C)N(CNC(=O)NCN2C(=O)C(C)CC2(C)C)C1=O (centres unmarked) [compound 18, 1,3-bis[(3,5,5-trimethyl-2-oxo-pyrrolidino)methyl]-urea]
- responders at 100 µM, 100 µmol/kg [4, 9]: 20%
- responders at 320 µM, 320 µmol/kg [4, 10]: 60%
- Dose mM/kg - mouse (dose which brings about the death of one animal out of eight in Irwin's test) [3]: 2 mM/kg
- Dose mg/kg (dose which brings about the death of one animal out of eight in Irwin's test) [3]: 676.8 mg/kg

Compound: CC(NC(=O)NC(C)N1CCCC1=O)N1CCCC1=O (centres unmarked) [Compound No. 11, 1,3-bis[1-(2-oxo-pyrrolidino)ethyl]-urea]
- minimal effective dose [1, 6]: 0.005 µmol/kg
- minimal effective dose [1, 7]: 0.0014 mg/kg
- responders at 32 µM, 32 µmol/kg ([4]; mice, intraperitoneal, 0.032 mM/kg, one hour before the curarizer, control animals 3/20 (compound 1), 1/10 (compound 11)): 70%
- Dose mM/kg - mouse (dose which brings about the death of one animal out of eight in Irwin's test) [3]: > 3 mM/kg
- Dose mg/kg (dose which brings about the death of one animal out of eight in Irwin's test) [3]: > 846 mg/kg

Compound: O=C(NCCCN1CCCC1=O)NCCCN1CCCC1=O [compound 23, 1,3-bis[3-(2-oxo-pyrrolidino)propyl]-urea]
- responders at 320 µM, 320 µmol/kg [2, 8]: 50%
- Dose mM/kg - mouse (dose which brings about the death of one animal out of eight in Irwin's test) [3]: > 3 mM/kg
- Dose mg/kg (dose which brings about the death of one animal out of eight in Irwin's test) [3]: 931.2 mg/kg

Compound: CCCCC1CCN(CNC(=S)NCN2CCC(CCCC)C2=O)C1=O (centres unmarked) [compound 26, 1,3-bis[(3-n-butyl-2-oxo-pyrrolidino)methyl]-2-thiourea]
- responders at 100 µM, 100 µmol/kg [4, 9]: 70%
- Dose mM/kg - mouse (dose which brings about the death of one animal out of eight in Irwin's test) [3]: > 2 mM/kg
- Dose mg/kg (dose which brings about the death of one animal out of eight in Irwin's test) [3]: > 765.2 mg/kg

Compound: O=C(NCN1CCCC1=O)NCN1CCCC1=O [Compound No. 1, 1,3-bis[(2-oxo-pyrrolidino)methyl]-urea]
- minimal effective dose [1, 6]: 0.01 µmol/kg
- minimal effective dose [1, 7]: 0.0025 mg/kg
- minimal effective dose [2, 11]: 100 µmol/kg
- minimal effective dose [2, 12]: 25 mg/kg
- responders at 100 µM, 25 mg/kg ([2]; ip, 35 min, rat, intraperitoneal, 0.1 mM/kg (25.0 mg/kg), read-out: Number of animals which responded positively to the test, in relation to the number of animals tested (converted)): 63.6%
- activity relative to piracetam (spinal fixation time) ([2]; rat, intraperitoneal): more active than piracetam
- responders at 32 µM, 32 µmol/kg [4]: 70%
- responders at 100 µM, 100 µmol/kg [4]: 60%
- responders at 2.5 mg/kg [4]: 33.3%
- Dose mM/kg - mouse (dose which brings about the death of one animal out of eight in Irwin's test) [3]: > 6 mM/kg
- Dose mg/kg (dose which brings about the death of one animal out of eight in Irwin's test) [3]: > 1530 mg/kg
- LD50 [5, 13]: > 5600 mg/kg
- LD50 [5, 14]: > 22000 µmol/kg
- LD50 [5, 15]: > 10000 mg/kg
- LD50 [5, 16]: > 39000 µmol/kg

Compound: NC(=O)CN1CCCC1=O [piracetam, 2-oxo-1-pyrrolidineacetamide, reference compound]
- minimal effective dose ([1]; Rattus norvegicus, 24 h, read-out: Active dose mM/kg (minimum dose lowering the stimulus below 11 graduations; mM = millimole)): 2.5 µmol/kg
- minimal effective dose ([1]; Rattus norvegicus, 24 h, read-out: Active dose mg/kg (minimum dose lowering the stimulus below 11 graduations)): 3.5 mg/kg
- degree of retention ([1]; rat, compared with control animals): significant degree of retention
- responders at 320 µM, 320 µmol/kg ([2]; Rattus norvegicus, ip, 35 min, read-out: Number of animals which responded positively to the test, in relation to the number of animals tested): 55.6%
- minimal effective dose [2, 11]: 320 µmol/kg
- minimal effective dose [2, 12]: 45 mg/kg
- responders at 320 µM, 320 µmol/kg [4]: 10%
- responders at 142 mg/kg [4]: 40%
- responders at 454 mg/kg ([4]; mice, intraperitoneal, 454 mg/kg (3.2 mM/kg), one hour before the curarizer, control animals 1/10): 80%
- LD50 [5, 13]: > 8000 mg/kg
- LD50 [5, 14]: > 56000 µmol/kg
- LD50 [5, 15]: > 10000 mg/kg
- LD50 [5, 16]: > 70000 µmol/kg
